Tests used:
[1] = biological target: Serine/threonine-protein kinase 32B (Homo sapiens) (UniProt Q9NY57); experiment: Selectivity interaction (KinomeScan (DiscoverX)) EUB0000229b STK32B; settings: at 10 µM
[2] = biological target: Mitogen-activated protein kinase kinase kinase 21 (Homo sapiens) (UniProt Q5TCX8); experiment: Selectivity interaction (ProQinase) EUB0000171b MAP3K21
[3] = biological target: PAS domain-containing serine/threonine-protein kinase (Homo sapiens) (UniProt Q96RG2); experiment: Selectivity interaction (KinaseProfiler screening (Millipore)) EUB0000601a PASK; settings: at 3 µM
PAS domain-containing serine/threonine-protein kinase (Homo sapiens), sequence (Q96RG2 whole entry, the tested form may be a part): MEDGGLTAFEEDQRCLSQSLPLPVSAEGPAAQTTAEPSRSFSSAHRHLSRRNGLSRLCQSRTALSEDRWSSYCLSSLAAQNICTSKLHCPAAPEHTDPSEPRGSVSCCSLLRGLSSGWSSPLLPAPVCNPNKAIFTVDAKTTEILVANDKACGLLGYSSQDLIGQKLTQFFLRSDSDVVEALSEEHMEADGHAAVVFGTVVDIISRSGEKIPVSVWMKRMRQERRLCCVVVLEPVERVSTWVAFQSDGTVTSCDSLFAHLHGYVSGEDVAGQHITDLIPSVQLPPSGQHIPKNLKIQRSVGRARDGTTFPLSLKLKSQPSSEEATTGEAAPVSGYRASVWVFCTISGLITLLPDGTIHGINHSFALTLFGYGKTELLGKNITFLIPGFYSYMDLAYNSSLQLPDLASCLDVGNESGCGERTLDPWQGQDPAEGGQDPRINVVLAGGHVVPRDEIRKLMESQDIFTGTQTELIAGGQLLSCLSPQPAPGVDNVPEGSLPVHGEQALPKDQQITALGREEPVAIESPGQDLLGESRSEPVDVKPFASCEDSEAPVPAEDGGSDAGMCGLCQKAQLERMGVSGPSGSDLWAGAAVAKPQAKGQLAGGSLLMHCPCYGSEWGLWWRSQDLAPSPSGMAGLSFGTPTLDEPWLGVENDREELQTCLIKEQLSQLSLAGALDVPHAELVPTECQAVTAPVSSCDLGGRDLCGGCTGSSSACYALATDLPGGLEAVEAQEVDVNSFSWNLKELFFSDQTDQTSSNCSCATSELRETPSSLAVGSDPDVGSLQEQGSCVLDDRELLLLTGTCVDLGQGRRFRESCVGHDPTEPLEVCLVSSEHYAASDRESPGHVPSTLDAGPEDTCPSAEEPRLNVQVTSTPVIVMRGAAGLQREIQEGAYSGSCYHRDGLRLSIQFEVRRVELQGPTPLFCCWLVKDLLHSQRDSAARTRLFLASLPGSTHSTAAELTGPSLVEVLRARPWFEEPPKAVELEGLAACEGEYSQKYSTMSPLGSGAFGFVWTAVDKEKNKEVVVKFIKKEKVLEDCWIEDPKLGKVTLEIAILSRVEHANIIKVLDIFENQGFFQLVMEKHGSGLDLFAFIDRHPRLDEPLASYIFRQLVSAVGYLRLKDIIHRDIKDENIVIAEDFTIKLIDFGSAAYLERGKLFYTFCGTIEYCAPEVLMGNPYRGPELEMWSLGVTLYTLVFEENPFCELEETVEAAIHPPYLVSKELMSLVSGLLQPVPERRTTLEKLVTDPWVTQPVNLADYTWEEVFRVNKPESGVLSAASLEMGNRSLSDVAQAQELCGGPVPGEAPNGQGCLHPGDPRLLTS

[4] = biological target: Transcription initiation factor TFIID subunit 1 (Homo sapiens) (UniProt P21675); experiment: Selectivity interaction (Bromodomain panel (DSF asssay)) EUB0000270b TAF1
Transcription initiation factor TFIID subunit 1 (Homo sapiens), sequence (P21675 whole entry): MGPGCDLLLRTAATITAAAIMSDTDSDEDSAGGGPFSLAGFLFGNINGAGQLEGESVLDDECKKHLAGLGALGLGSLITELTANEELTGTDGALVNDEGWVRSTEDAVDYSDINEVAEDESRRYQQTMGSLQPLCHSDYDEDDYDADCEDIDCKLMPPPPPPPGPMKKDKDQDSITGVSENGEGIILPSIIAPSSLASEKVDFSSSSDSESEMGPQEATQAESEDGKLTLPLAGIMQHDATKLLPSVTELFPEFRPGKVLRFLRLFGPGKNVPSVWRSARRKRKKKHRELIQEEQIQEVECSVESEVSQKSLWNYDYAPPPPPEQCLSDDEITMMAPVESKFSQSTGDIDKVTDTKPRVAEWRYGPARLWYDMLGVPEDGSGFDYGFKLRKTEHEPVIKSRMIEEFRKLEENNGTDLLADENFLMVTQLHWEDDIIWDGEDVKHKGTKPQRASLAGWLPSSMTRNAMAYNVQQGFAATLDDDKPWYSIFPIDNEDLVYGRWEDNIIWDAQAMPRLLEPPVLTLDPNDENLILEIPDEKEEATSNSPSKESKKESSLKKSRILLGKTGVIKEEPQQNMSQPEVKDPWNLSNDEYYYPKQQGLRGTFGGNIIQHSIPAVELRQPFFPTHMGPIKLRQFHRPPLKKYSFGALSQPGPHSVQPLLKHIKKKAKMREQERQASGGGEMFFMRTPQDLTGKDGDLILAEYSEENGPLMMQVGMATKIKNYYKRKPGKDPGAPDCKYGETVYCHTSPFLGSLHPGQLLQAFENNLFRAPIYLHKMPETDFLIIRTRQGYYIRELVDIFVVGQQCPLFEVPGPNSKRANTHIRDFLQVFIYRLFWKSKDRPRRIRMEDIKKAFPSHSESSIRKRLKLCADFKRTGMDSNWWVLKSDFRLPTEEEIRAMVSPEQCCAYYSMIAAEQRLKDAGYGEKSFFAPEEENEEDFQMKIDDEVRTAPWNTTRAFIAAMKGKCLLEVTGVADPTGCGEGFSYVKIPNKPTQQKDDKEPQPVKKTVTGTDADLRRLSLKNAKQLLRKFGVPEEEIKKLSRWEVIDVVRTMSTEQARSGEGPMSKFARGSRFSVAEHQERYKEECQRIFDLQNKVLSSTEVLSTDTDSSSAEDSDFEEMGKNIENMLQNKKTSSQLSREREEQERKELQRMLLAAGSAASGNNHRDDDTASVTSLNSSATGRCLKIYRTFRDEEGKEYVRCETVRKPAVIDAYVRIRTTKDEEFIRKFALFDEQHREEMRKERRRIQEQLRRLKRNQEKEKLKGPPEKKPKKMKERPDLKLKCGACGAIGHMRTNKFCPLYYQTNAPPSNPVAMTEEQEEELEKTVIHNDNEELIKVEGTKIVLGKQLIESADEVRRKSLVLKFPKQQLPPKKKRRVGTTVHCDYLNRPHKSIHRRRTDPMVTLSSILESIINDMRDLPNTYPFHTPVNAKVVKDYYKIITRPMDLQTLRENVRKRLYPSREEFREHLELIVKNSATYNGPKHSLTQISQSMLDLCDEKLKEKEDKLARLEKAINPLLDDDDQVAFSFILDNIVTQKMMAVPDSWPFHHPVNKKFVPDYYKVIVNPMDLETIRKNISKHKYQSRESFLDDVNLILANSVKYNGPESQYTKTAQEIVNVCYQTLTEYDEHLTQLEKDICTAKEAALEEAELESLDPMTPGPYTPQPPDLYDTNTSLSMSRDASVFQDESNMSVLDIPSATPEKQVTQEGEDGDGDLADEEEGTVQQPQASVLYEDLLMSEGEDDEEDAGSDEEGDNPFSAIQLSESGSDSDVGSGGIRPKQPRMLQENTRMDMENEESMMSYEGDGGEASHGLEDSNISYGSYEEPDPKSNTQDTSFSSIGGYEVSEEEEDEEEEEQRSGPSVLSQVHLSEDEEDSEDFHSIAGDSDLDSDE

[5] = biological target: Mu-type opioid receptor (Homo sapiens, UniProt P35372); experiment: Selectivity interaction (GPCR panel (PDSP screen)) EUB0000311b OPRM1; settings: at 10 µM
[6] = biological target: Serine/threonine-protein kinase 16 (Homo sapiens, UniProt O75716); experiment: Selectivity interaction (ActivX KiNativ screen (kinase selectivity in THP-1 cell lysates)) EUB0000639a STK16; type: subcellular; settings: lysate, at 1 µM
Serine/threonine-protein kinase 16, sequence (O75716 whole entry): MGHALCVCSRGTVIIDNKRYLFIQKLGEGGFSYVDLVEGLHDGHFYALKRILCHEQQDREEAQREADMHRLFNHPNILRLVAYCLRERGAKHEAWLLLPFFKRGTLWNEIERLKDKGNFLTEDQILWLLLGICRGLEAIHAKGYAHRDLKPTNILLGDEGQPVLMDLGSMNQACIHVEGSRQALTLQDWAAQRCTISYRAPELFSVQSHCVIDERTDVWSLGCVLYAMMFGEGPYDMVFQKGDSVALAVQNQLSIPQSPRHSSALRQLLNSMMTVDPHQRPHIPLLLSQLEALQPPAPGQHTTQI

[7] = biological target: Tyrosine-protein kinase FRK (Homo sapiens) (UniProt P42685); settings: at 10 µM
Tyrosine-protein kinase FRK (Homo sapiens), sequence (P42685 whole entry): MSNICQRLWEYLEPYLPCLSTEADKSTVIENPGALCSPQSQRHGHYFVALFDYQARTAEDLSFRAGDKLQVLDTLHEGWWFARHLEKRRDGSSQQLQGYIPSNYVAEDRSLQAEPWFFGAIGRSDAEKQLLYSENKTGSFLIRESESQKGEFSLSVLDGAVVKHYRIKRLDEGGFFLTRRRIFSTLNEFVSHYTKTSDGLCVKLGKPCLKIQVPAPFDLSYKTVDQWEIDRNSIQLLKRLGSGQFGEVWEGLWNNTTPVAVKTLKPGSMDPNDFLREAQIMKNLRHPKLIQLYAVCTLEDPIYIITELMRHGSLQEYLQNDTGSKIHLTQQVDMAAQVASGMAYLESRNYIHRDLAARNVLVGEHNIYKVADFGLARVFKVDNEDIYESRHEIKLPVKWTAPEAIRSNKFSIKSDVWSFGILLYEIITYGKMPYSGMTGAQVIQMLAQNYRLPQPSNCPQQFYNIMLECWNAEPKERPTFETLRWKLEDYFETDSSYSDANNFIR

[8] = biological target: T1, Ephrin type-A receptor 6 (Homo sapiens) (UniProt Q9UF33); experiment: Selectivity interaction (KinomeScan (DiscoverX)) EUB0000045b EPHA6
T1 sequence (whole entry): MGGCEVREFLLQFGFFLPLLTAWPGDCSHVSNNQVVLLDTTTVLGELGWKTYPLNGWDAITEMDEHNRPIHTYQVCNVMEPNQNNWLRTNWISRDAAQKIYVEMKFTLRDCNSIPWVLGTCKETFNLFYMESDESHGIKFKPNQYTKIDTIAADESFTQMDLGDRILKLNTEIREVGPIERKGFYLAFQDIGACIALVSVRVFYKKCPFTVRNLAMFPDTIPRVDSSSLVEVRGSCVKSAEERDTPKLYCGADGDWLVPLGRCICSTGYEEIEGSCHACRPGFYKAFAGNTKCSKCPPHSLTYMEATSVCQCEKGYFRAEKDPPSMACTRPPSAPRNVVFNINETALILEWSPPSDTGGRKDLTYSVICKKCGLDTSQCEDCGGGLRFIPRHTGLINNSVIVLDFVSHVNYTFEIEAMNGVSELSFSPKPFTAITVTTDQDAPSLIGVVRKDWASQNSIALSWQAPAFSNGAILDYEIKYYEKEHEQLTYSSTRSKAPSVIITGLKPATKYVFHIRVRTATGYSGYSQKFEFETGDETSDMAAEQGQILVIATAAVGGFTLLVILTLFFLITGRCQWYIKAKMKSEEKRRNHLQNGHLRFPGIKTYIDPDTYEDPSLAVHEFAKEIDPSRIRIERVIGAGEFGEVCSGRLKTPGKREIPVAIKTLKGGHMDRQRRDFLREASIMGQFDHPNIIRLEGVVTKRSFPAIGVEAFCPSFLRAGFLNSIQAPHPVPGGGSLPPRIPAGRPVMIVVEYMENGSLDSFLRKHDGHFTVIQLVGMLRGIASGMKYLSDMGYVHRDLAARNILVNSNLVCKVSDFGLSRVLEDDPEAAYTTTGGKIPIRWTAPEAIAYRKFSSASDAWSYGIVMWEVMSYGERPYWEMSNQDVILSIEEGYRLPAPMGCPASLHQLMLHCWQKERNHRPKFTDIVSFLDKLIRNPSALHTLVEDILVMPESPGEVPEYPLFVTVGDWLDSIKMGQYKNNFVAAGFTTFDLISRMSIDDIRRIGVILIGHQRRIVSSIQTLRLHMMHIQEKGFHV

[9] = biological target: T2, Mitogen-activated protein kinase kinase kinase kinase 2 (Homo sapiens) (UniProt Q12851); experiment: Selectivity interaction (KinomeScan (DiscoverX)) EUB0000618a MAP4K2; settings: at 10 µM
T2 sequence (whole entry): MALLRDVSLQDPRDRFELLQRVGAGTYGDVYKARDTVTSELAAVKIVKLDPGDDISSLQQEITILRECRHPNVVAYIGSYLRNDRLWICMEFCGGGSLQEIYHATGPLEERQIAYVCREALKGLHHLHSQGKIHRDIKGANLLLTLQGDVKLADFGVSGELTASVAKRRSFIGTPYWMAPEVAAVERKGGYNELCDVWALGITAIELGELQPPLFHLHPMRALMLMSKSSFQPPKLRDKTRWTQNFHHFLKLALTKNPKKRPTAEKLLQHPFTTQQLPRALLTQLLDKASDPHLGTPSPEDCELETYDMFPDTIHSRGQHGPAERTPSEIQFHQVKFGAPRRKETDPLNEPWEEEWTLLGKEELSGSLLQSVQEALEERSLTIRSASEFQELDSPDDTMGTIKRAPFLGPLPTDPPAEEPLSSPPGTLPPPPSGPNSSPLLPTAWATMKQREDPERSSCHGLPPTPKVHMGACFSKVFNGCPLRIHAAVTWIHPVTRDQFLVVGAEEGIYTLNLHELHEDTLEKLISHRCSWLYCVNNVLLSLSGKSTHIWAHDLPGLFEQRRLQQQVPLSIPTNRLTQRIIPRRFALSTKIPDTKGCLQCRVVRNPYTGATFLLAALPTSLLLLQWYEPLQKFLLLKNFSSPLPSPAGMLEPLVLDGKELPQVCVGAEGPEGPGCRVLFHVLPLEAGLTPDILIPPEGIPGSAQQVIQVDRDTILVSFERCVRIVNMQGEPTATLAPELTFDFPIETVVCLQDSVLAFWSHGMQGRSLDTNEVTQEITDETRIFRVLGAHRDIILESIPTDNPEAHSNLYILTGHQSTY

[10] = biological target: Peroxisome proliferator-activated receptor gamma (Homo sapiens) (UniProt P37231); experiment: Selectivity interaction (Eurofins CEREP Diversity Profile (receptors and ion channels)) EUB0000279b PPARG; settings: at 10 µM
[11] = biological target: Histone-lysine N-methyltransferase, H3 lysine-79 specific (Homo sapiens, UniProt Q8TEK3); settings: at 10 µM

Mitogen-activated protein kinase kinase kinase 21 (Homo sapiens), sequence (Q5TCX8 whole entry, the tested form may be a part): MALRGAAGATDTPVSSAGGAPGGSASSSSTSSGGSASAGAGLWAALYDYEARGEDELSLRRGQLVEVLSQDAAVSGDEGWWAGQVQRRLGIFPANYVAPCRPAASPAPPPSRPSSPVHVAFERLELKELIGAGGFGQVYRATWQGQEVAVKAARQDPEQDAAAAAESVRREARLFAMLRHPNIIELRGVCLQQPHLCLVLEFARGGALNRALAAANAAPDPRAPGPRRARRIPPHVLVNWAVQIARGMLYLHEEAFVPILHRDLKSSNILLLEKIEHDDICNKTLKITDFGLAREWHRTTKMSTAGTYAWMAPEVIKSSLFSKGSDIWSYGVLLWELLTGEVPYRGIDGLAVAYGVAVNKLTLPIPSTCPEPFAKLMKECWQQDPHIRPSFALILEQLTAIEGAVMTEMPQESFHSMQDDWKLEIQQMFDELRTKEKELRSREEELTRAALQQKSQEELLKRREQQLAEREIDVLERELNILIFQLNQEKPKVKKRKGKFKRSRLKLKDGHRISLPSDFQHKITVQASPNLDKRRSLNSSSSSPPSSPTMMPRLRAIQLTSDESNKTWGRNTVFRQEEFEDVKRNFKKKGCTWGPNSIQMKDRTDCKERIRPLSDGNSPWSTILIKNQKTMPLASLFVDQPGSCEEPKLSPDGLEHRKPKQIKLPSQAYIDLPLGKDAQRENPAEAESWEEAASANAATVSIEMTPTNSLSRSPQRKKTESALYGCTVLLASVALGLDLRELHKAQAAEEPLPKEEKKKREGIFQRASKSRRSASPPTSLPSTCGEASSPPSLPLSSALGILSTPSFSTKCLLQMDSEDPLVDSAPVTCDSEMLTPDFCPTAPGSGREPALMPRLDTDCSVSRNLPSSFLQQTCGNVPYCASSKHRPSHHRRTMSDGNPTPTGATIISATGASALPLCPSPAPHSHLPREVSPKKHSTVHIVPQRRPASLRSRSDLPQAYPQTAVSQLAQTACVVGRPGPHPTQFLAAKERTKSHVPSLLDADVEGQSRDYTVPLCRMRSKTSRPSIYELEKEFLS

Compound: COc1cc(N(C)c2ccnc3ccc(C(F)(F)F)cc23)cc(OC)c1OC
- % binding [1]: 100%

Compound: C=CC(=O)Nc1cccc(C(=O)Nc2ccc(Nc3cc(-c4[nH]c(SC)nc4C)ccn3)cc2)c1
- % of control ([2]; at 1 µM): 81%
- % of control ([2]; at 5 µM): 59%

Compound: CCc1cc(Nc2nccc(-c3c(-c4ccc(OC)c(C(=O)Nc5c(F)cccc5F)c4)nc4ccccn34)n2)c(OC)cc1N1CCC(N2CCN(S(C)(=O)=O)CC2)CC1
- % of inhibition [3]: 65%

Compound: Cc1cc(CN)cc(C)c1-c1ncn(C)c1-c1cncn1C
- dTM [4]: -1.17 K

Compound: CCc1ccccc1C(=O)Nc1n[nH]c2c(C)c(F)c(C3C(C#N)=C(C)N(C)C(C)=C3C#N)cc12 [BAY-3827]
- % of inhibition [5]: 30.5%

Compound: CC[C@@H]1[C@H](F)C(=O)N[C@@H]1COc1nccc2cc(C(N)=O)c(OC)cc12 [ZIMLOVISERTIB]
- % of inhibition [6]: 58.6%

Compound: COCC(=O)NC/C=C/c1ccc2ncnc(Nc3ccc(Oc4ccc(C)nc4)c(C)c3)c2c1 [CP-724714]
- % of control [7]: 100%

Compound: C=CC(=O)Nc1cc(-n2c(=O)ccc3cnc4ccc(-c5ccc(NS(C)(=O)=O)cc5)cc4c32)ccc1C
- % of control ([8]; at 1 µM): 96%
- % of control ([8]; at 10 µM): 87%

Compound: O[C@H]1CC[C@H](Nc2ncc3nc(Nc4c(F)cc(F)cc4F)n([C@H]4CCOC4)c3n2)CC1
- % of control [9]: 91%

Compound: CC(=O)c1cc(-c2ccccc2OCC2CC2)c2ncccn12
- % of control [10]: 105%

Compound: CNCCN1CCC(c2cc(CN(C)C(=O)c3cccc(Oc4ccccc4)c3)ccn2)CC1
- % activity [11]: > 90%

From ChEMBL document CHEMBL5465560, “Selectivity Literature for EUbOPEN Chemogenomic Library” (2024)
